Data published in US20250228239A1, “MOLECULES HAVING PESTICIDAL UTILITY, AND INTERMEDIATES, COMPOSITIONS, AND PROCESSES, RELATED THERETO” (priority 2024, published 2025).

Legend:
Type in all cases: in vivo
[1] = test system: Beet Armyworm (Spodoptera exigua, LAPHEG); experiment: Bioassays on Beet Armyworm (BAW), 128-well diet tray assay; conditions: Spodoptera exigua; Table ABC: Biological Results; species BAW; read-out: BAW
Method in brief: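 Larvae at second instar are exposed on dried, compound-treated diet (50 μg/cm^2, delivered in 90:10 acetone-water) in eight replicate wells. After five to seven days at 25° C., 14:10 light-dark, percent mortality in each well is scored and the eight wells averaged.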

[2] = test system: Cabbage Looper (Trichoplusia ni, TRIPNI); experiment: Bioassays on Cabbage Looper (CL), 128-well diet tray assay; conditions: Trichoplusia ni; Table ABC: Biological Results; species CL; read-out: CL
Method in brief: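 Activity is mean percent mortality over eight wells of second-instar larvae exposed to diet treated at 50 μg/cm^2 for 5–7 days at 25° C.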

[3] = test system: Yellow Fever Mosquito (Aedes aegypti, AEDSAE); conditions: Table ABC: Biological Results; species YFM
Method in brief: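 Rating-scale grades reflect larval mortality scored per well after 3 days at room temperature under non-evaporative lids. Larvae (~1 day old, hatched overnight in liver-powder water) were added to six daughter plates per compound, prepared from a 4000 ppm DMSO stock diluted in 90:10 water/acetone.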

Compound: Cc1cc(NCCO)ccc1NC(=O)c1cc(NC(=O)[C@H]2[C@H](c3cc(Cl)cc(Cl)c3)C2(Cl)Cl)ccc1Cl (relative stereo) [F1130, trans-2-chloro-5-(2,2-dichloro-3-(3,5-dichlorophenyl)cyclopropane-1-carboxamido)-N-(4-((2-hydroxyethyl)amino)-2-methylphenyl)benzamide]
- pest or weed control at 50 µg/cm2 [1]: 50 to 100%
- pest or weed control at 50 µg/cm2 [2]: 50 to 100%
- YFM [3]: A (80–100)

Compound: Cc1cc(NC(=O)[C@H]2[C@H](c3ccc(F)c(Cl)c3)C2(Cl)Cl)cc(C(=O)Nc2ccc(F)cc2)c1F (relative stereo) [F1136, trans-5-(2,2-Dichloro-3-(3-chloro-4-fluorophenyl)cyclopropane-1-carboxamido)-2-fluoro-N-(4-fluorophenyl)-3-methylbenzamide]
- pest or weed control at 50 µg/cm2 [1]: 50 to 100%
- pest or weed control at 50 µg/cm2 [2]: 50 to 100%
- YFM [3]: A (80–100)

Compound: Cc1cc(NC(=O)[C@H]2[C@H](c3ccc(F)c(Cl)c3)C2(Cl)Cl)cc(C(=O)Nc2ccc(F)cc2F)c1F (relative stereo) [F1137, trans-5-(2,2-Dichloro-3-(3-chloro-4-fluorophenyl)cyclopropane-1-carboxamido)-N-(2,4-difluorophenyl)-2-fluoro-3-methylbenzamide]
- pest or weed control at 50 µg/cm2 [1]: 50 to 100%
- pest or weed control at 50 µg/cm2 [2]: 50 to 100%
- YFM [3]: A (80–100)

Compound: CC(=O)Nc1ccc(NC(=O)c2cc(NC(=O)[C@H]3[C@H](c4ccc(F)c(Cl)c4)C3(Cl)Cl)cc(C)c2F)cc1 (relative stereo) [F1139, trans-N-(4-Acetamidophenyl)-5-(2,2-dichloro-3-(3-chloro-4-fluorophenyl)-cyclopropane-1-carboxamido)-2-fluoro-3-methylbenzamide]
- pest or weed control at 50 µg/cm2 [1]: 50 to 100%
- pest or weed control at 50 µg/cm2 [2]: 50 to 100%
- YFM [3]: A (80–100)

Compound: Nc1c(F)ccc(NC(=O)c2cc(NC(=O)[C@H]3[C@H](c4ccc(I)cc4)C3(Cl)Cl)ccc2Cl)c1F (relative stereo) [F1140, trans-N-(3-Amino-2,4-difluorophenyl)-2-chloro-5-(2,2-dichloro-3-(4-iodophenyl)cyclopropane-1-carboxamido)benzamide]
- pest or weed control at 50 µg/cm2 [1]: 50 to 100%
- pest or weed control at 50 µg/cm2 [2]: 50 to 100%
- YFM [3]: A (80–100)

Compound: Nc1c(F)ccc(NC(=O)c2cc(NC(=O)[C@H]3[C@H](c4cccc(I)c4)C3(Cl)Cl)ccc2Cl)c1F (relative stereo) [F1141, trans-N-(3-Amino-2,4-difluorophenyl)-2-chloro-5-(2,2-dichloro-3-(3-iodophenyl)cyclopropane-1-carboxamido)benzamide]
- pest or weed control at 50 µg/cm2 [1]: 50 to 100%
- pest or weed control at 50 µg/cm2 [2]: 50 to 100%
- YFM [3]: A (80–100)

Compound: Nc1c(F)ccc(NC(=O)c2cc(NC(=O)[C@H]3[C@H](c4ccc(S(F)(F)(F)(F)F)cc4)C3(Cl)Cl)ccc2Cl)c1F (relative stereo) [F1142, trans-N-(3-Amino-2,4-difluorophenyl)-2-chloro-5-(2,2-dichloro-3-(4-(pentafluoro-λ^6-sulfanyl)phenyl)cyclopropane-1-carboxamido)benzamide]
- pest or weed control at 50 µg/cm2 [1]: 50 to 100%
- pest or weed control at 50 µg/cm2 [2]: 50 to 100%
- YFM [3]: A (80–100)

Compound: Nc1c(F)ccc(NC(=O)c2cc(NC(=O)[C@H]3[C@H](c4cccc(S(F)(F)(F)(F)F)c4)C3(Cl)Cl)ccc2Cl)c1F (relative stereo) [F1143, trans-N-(3-Amino-2,4-difluorophenyl)-2-chloro-5-(2,2-dichloro-3-(3-(pentafluoro-λ^6-sulfanyl)phenyl)cyclopropane-1-carboxamido)benzamide]
- pest or weed control at 50 µg/cm2 [1]: 50 to 100%
- pest or weed control at 50 µg/cm2 [2]: 50 to 100%
- YFM [3]: A (80–100)

Compound: Nc1c(F)ccc(NC(=O)c2cc(NC(=O)[C@H]3[C@H](c4cc(Cl)c(Cl)c(C(F)(F)F)c4)C3(Cl)Cl)ccc2Cl)c1F (relative stereo) [F1149, trans-N-(3-Amino-2,4-difluorophenyl)-2-chloro-5-(2,2-dichloro-3-(3,4-dichloro-5-(trifluoromethyl)phenyl)cyclopropane-1-carboxamido)benzamide]
- pest or weed control at 50 µg/cm2 [1]: 50 to 100%
- pest or weed control at 50 µg/cm2 [2]: 50 to 100%
- YFM [3]: A (80–100)

Compound: Nc1c(F)ccc(NC(=O)c2cc(NC(=O)[C@H]3[C@@H](c4cc(Cl)c(Cl)c(C(F)(F)F)c4)C3(Cl)Cl)ccc2Cl)c1F (relative stereo) [F1150, cis-N-(3-Amino-2,4-difluorophenyl)-2-chloro-5-(2,2-dichloro-3-(3,4-dichloro-5-(trifluoromethyl)phenyl)cyclopropane-1-carboxamido)benzamide]
- pest or weed control at 50 µg/cm2 [1]: 50 to 100%
- pest or weed control at 50 µg/cm2 [2]: 50 to 100%
- YFM [3]: A (80–100)

Compound: O=C(Nc1ccc(F)cc1)c1cc(NC(=O)[C@H]2[C@H](c3ccc(F)c(Cl)c3)C2(Cl)Cl)cc(F)c1Cl (relative stereo) [F1152, trans-2-Chloro-5-(2,2-dichloro-3-(3-chloro-4-fluorophenyl)cyclopropane-1-carboxamido)-3-fluoro-N-(4-fluorophenyl)benzamide]
- pest or weed control at 50 µg/cm2 [1]: 50 to 100%
- pest or weed control at 50 µg/cm2 [2]: 50 to 100%
- YFM [3]: A (80–100)

Compound: O=C(Nc1ccc(F)cc1F)c1cc(NC(=O)[C@H]2[C@H](c3ccc(F)c(Cl)c3)C2(Cl)Cl)cc(F)c1Cl (relative stereo) [F1153, trans-2-Chloro-5-(2,2-dichloro-3-(3-chloro-4-fluorophenyl)cyclopropane-1-carboxamido)-N-(2,4-difluorophenyl)-3-fluorobenzamide]
- pest or weed control at 50 µg/cm2 [1]: 50 to 100%
- pest or weed control at 50 µg/cm2 [2]: 50 to 100%
- YFM [3]: A (80–100)

Compound: CC(=O)Nc1ccc(NC(=O)c2cc(NC(=O)[C@H]3[C@H](c4ccc(F)c(Cl)c4)C3(Cl)Cl)cc(F)c2Cl)cc1 (relative stereo) [F1154, trans-N-(4-Acetamidophenyl)-2-chloro-5-(2,2-dichloro-3-(3-chloro-4-fluorophenyl)cyclopropane-1-carboxamido)-3-fluorobenzamide]
- pest or weed control at 50 µg/cm2 [1]: 50 to 100%
- pest or weed control at 50 µg/cm2 [2]: 50 to 100%
- YFM [3]: A (80–100)

Compound: CC(=O)Nc1c(F)ccc(NC(=O)c2cc(NC(=O)[C@H]3[C@H](c4cc(Cl)cc(Cl)c4)C3(Cl)Cl)ccc2Cl)c1Cl (relative stereo) [F1160, trans-N-(3-acetamido-2-chloro-4-fluorophenyl)-2-chloro-5-(2,2-dichloro-3-(3,5-dichlorophenyl)cyclopropane-1-carboxamido)benzamide]
- pest or weed control at 50 µg/cm2 [1]: 50 to 100%
- pest or weed control at 50 µg/cm2 [2]: 50 to 100%
- YFM [3]: A (80–100)

Compound: COCCNc1ccc(NC(=O)c2cc(NC(=O)[C@H]3[C@H](c4cc(Cl)cc(Cl)c4)C3(Cl)Cl)ccc2Cl)c(C)c1 (relative stereo) [F1162, trans-2-Chloro-5-(2,2-dichloro-3-(3,5-dichlorophenyl)cyclopropane-1-carboxamido)-N-(4-((2-methoxyethyl)amino)-2-methylphenyl)benzamide]
- pest or weed control at 50 µg/cm2 [1]: 50 to 100%
- pest or weed control at 50 µg/cm2 [2]: 50 to 100%
- YFM [3]: A (80–100)

Compound: O=C(Nc1ccc(F)cc1F)c1cc(NC(=O)[C@H]2[C@H](c3cc(F)c(Cl)c(C(F)(F)F)c3)C2(Cl)Cl)ccc1Cl (relative stereo) [F1163, trans-2-Chloro-5-(2,2-dichloro-3-(4-chloro-3-fluoro-5-(trifluoromethyl)phenyl)cyclopropane-1-carboxamido)-N-(2,4-difluorophenyl)benzamide]
- pest or weed control at 50 µg/cm2 [1]: 50 to 100%
- pest or weed control at 50 µg/cm2 [2]: 50 to 100%
- YFM [3]: A (80–100)

Compound: O=C(Nc1ccc(F)cc1F)c1cc(NC(=O)[C@H]2[C@@H](c3cc(F)c(Cl)c(C(F)(F)F)c3)C2(Cl)Cl)ccc1Cl (relative stereo) [F1164, cis-2-Chloro-5-(2,2-dichloro-3-(4-chloro-3-fluoro-5-(trifluoromethyl)phenyl)cyclopropane-1-carboxamido)-N-(2,4-difluorophenyl)benzamide]
- pest or weed control at 50 µg/cm2 [1]: 50 to 100%
- pest or weed control at 50 µg/cm2 [2]: 50 to 100%
- YFM [3]: A (80–100)

Compound: Cc1cc(NCc2ccc([N+](=O)[O-])cc2)ccc1NC(=O)c1cc(NC(=O)[C@H]2[C@H](c3cc(Cl)cc(Cl)c3)C2(Cl)Cl)ccc1Cl (relative stereo) [F1166, trans-2-Chloro-5-(2,2-dichloro-3-(3,5-dichlorophenyl)cyclopropane-1-carboxamido)-N-(2-methyl-4-((4-nitrobenzyl)amino)phenyl)benzamide]
- pest or weed control at 50 µg/cm2 [1]: 50 to 100%
- pest or weed control at 50 µg/cm2 [2]: 50 to 100%
- YFM [3]: A (80–100)

Compound: Nc1c(F)ccc(NC(=O)c2cc(NC(=O)[C@H]3[C@H](c4cc(F)c(Cl)c(C(F)(F)F)c4)C3(Cl)Cl)ccc2Cl)c1F (relative stereo) [F1167, trans-N-(3-Amino-2,4-difluorophenyl)-2-chloro-5-(2,2-dichloro-3-(4-chloro-3-fluoro-5-(trifluoromethyl)phenyl)cyclopropane-1-carboxamido)benzamide]
- pest or weed control at 50 µg/cm2 [1]: 50 to 100%
- pest or weed control at 50 µg/cm2 [2]: 50 to 100%
- YFM [3]: A (80–100)

Compound: O=C(Nc1ccc(F)cc1F)c1cc(NC(=O)[C@H]2[C@H](c3cc(Cl)c(F)c(Cl)c3)C2(Cl)Cl)ccc1Cl (relative stereo) [F1172, trans-2-Chloro-5-(2,2-dichloro-3-(3,5-dichloro-4-fluorophenyl)cyclopropane-1-carboxamido)-N-(2,4-difluorophenyl)benzamide]
- pest or weed control at 50 µg/cm2 [1]: 50 to 100%
- pest or weed control at 50 µg/cm2 [2]: 50 to 100%
- YFM [3]: A (80–100)
